Read-outs that look alike come from different tables or passages of the source.
Key:
[1] = molecular target: T1, human H1 receptor (Homo sapiens, UniProt P35367); assay: Histamine H1 receptor binding, competition displacement of [3H]-pyrilamine; conditions: 1 nM [3H]-pyrilamine, membranes from recombinant CHO-K1 cells expressing the human H1 receptor, 1 hour at room temperature; read-out: H1 pKi (converted)
T1 construct: purchased Euroscreen SA, Brussels, Belgium ES-390-M; host or cells: recombinant CHO-K1 cells (membranes)
Method: Histamine H1 receptor binding activity of compounds of the invention was assessed by competition displacement of 1 nM [3H]-pyrilamine (Amersham, Bucks, Product code TRK 608, specific activity 30 Ci/mmol) to 2 μg membranes prepared from recombinant CHO-K1 cells expressing the human H1 receptor (Euroscreen SA, Brussels, Belgium, product code ES-390-M) in assay buffer (50 mM Tris pH 7.4 containing 2 mM MgCl2, 250 mM sucrose and 100 mM NaCl) for 1 hour at room temperature.
The following compounds of the invention gave inhibition of [3H]pyrilimine binding: […]

[2] = pKa measurement (Sirius GLpKa); type: physicochemical
Method: The pKa of a compound of formula (I) is measured using one of the following methodologies.
The apparatus used consists of a Sirius GLpKa instrument with DPAS (Dip Probe Absorption Spectroscopy) attachment. Key elements of the apparatus are a Sirius pH electrode, stirrer, titrant dispensing tubes, a multi-tipped dispenser, motor driven dispensing syringes, fibre optic UV probe and diode array detector. In addition, solutions in PTFE containers of ionic strength adjusted (0.10 M KCl) distilled water, nominally 0.50 M HCl, nominally 0.50 M KOH and 80% v/v methanol:water are also housed within the instrument. The titration solutions are constantly purged with oxygen free nitrogen. The reservoir for the potassium hydroxide solution is further protected from atmospheric contamination by a soda-lime guard-tube. Samples are placed in titration vessels which in turn are placed in a movable autosampler tray (maximum capacity 48 samples). The electrode, stirrer, dispensing tubing/tips and DPAS probe are housed on a movable, automated z-tower unit, which, controlled by software, positions itself in the appropriate titration vessel when titrating. The Sirius GLpKa instrument is directly connected to a dedicated PC supporting software for assay setup and subsequent data analysis. Assays are set up using the GlpKaControl software and results are analysed using the pKaLOGP and pKaUV software on the PC. The software also allows determination of multiple pKas using complex curve fitting analyses.
Method B: Potentiometric Method
Two types of potentiometric titrations may be performed in order to determine a compound's pKa/pKas; a purely aqueous titration (recommended for fairly water soluble compounds) and a cosolvent titration, where variable amounts of methanol are added to the sample in addition to ionic strength adjusted water (recommended for compounds which are not soluble in water). For the latter, a value for the compound's pKa in pure ionic strength adjusted water can be estimated by the Yasuda-Shedlovsky procedure. This involves measuring the apparent pKa of the compound at three known weight percentages of methanol:water (transposed into reciprocals of the dielectric constants of the medium, 1/εr) and then extrapolating to 0 wt % methanol (1/εr=[…]).
The GLpKa instrument unit also houses two aqueous wash containers (containing distilled water), a waste beaker (to dispense extraneous solutions into) and a container holding pH 7.00 buffer solution for the electrode to be immersed in during periods between titrations. Each time a set of titrations is carried out, these solutions are replaced. Position 1 in the autosampler contains a titration vessel containing pH 7.00 buffer solution (changed for each titration set). For each titration set to be run, position 2 houses a titration vessel into which ionic strength adjusted water is dispensed (typically 15.00 mL). This in turn is adjusted to pH 1.80 with aqueous HCl and then titrated to pH 12.20 by gradual addition of aqueous KOH. This is referred to as a blank titration and is employed by the pKaLogP software in order to calibrate the pH electrode and to standardise the HCl solution, using the so-called four-plus parameter procedure. Periodically, (typically every 3 months, or when the titration solutions run low) the titration solutions are replaced and the KOH solution standardised against potassium hydrogen phthalate using a standardisation procedure within the GLpKaControl software. Between 1-2 mg of each sample must be accurately weighed out. Samples are placed in provided glass titration vessels. The weight of compound must be entered into the GLpKaControl software. […]

[3] = ionic strength adjusted (0.10 M KCl) water, Method B: potentiometric method, read-out: pKa (measured using Method B)

T1 sequence (P35367 whole entry): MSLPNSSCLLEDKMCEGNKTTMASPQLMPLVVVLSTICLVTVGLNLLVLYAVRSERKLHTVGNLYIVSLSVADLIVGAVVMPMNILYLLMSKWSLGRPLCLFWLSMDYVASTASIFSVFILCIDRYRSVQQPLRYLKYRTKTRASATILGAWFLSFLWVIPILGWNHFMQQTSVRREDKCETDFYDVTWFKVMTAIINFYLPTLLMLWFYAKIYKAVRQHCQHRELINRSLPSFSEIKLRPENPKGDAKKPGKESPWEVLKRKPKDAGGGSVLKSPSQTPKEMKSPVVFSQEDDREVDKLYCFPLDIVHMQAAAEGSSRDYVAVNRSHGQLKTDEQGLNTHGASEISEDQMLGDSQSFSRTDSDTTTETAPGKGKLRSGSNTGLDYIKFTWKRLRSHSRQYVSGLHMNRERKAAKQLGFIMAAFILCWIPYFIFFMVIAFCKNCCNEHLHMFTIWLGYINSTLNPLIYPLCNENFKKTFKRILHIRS

SMILES | Ki [1] | pKa [2, 3] | pKa ([2]; method not stated, read-out: measured pKa)
O=C(NC[C@H](O)CN1CCC(Oc2ccc(Cl)c(Cl)c2)CC1)c1sc(=O)[nH]c1C(F)(F)F [Example 28, N-{(2S)-3-[4-(3,4-Dichlorophenoxy)piperidin-1-yl]-2-hydroxypropyl}-2-oxo-4-(trifluoromethyl)-2,3-dihydro-1,3-thiazole-5-carboxamide] | 39.8 nM | – | –
O=C(O)c1ccc(C(=O)NC[C@@H](O)CN2CCC(Oc3ccc(Cl)c(Cl)c3)CC2)c2ccccc12 [Example 20, 4-[({(2R)-3-[4-(3,4-Dichlorophenoxy)piperidin-1-yl]-2-hydroxypropyl}amino)-carbonyl]-1-naphthoic acid] | 200 nM | – | –
Cc1c(OC2CCN(C[C@H](O)CNC(=O)c3sc(=O)[nH]c3C(F)(F)F)CC2)ccc(Cl)c1Cl [Example 24, N-{(2R)-3-[4-(3,4-Dichloro-2-methylphenoxy)piperidin-1-yl]-2-hydroxypropyl}-2-oxo-4-(trifluoromethyl)-2,3-dihydro-1,3-thiazole-5-carboxamide] | 20 nM | – | –
N#Cc1cc(C(=O)NC[C@@H](O)CN2CCC(Oc3ccc(Cl)c(Cl)c3)CC2)c(C2CC2)[nH]c1=O [Example 16, 5-Cyano-2-cyclopropyl-N-[(2R)-3-[4-(3,4-dichlorophenoxy)-1-piperidinyl]-2-hydroxypropyl]-1,6-dihydro-6-oxo-3-pyridinecarboxamide] | 25.1 nM | 3.8 | –
O=C(NC[C@@H](O)CN1CCC(Oc2ccc(Cl)c(Cl)c2)CC1)c1sc(=O)[nH]c1-c1ccc(F)cc1 [Example 25, N-{(2R)-3-[4-(3,4-Dichlorophenoxy)piperidin-1-yl]-2-hydroxypropyl}-4-(4-fluorophenyl)-2-oxo-2,3-dihydro-1,3-thiazole-5-carboxamide] | 15.8 nM | 7.4 | –
Cc1c(OC2CCN(C[C@H](O)CNC(=O)c3ccc(Cl)c(OCC(=O)O)c3)CC2)ccc(Cl)c1Cl [Example 45, {2-Chloro-5-[({(2R)-3-[4-(3,4-dichloro-2-methylphenoxy)piperidin-1-yl]-2-hydroxypropyl}amino)carbonyl]phenoxy}acetic acid] | 63.1 nM | – | –
Cn1c(C(=O)NC[C@@H](O)CN2CCC(Oc3ccc(Cl)c(Cl)c3)CC2)cc(=O)[nH]c1=O [Example 14, N-{(2R)-3-[4-(3,4-Dichlorophenoxy)piperidin-1-yl]-2-hydroxypropyl}-3-methyl-2,6-dioxo-1,2,3,6-tetrahydropyrimidine-4-carboxamide] | 126 nM | – | –
Cc1c(OC2CCN(C[C@H](O)CNC(=O)COc3cc(C(=O)O)ccc3Cl)CC2)ccc(Cl)c1Cl [Example 44, 4-Chloro-3-[2-({(2R)-3-[4-(3,4-dichloro-2-methylphenoxy)piperidin-1-yl]-2-hydroxypropyl}amino)-2-oxoethoxy]benzoic acid] | 12.6 nM | – | –
Cc1[nH]nnc1C(=O)NC[C@@H](O)CN1CCC(Oc2ccc(Cl)c(Cl)c2)CC1 [Example 8, N-{(2R)-3-[4-(3,4-Dichlorophenoxy)piperidin-1-yl]-2-hydroxypropyl}-5-methyl-1H-1,2,3-triazole-4-carboxamide] | 15.8 nM | 7.5 | –
N#Cc1cc(C(=O)NC[C@@H](O)CN2CCC(Oc3ccc(Cl)c(Cl)c3)CC2)c(C(F)(F)F)[nH]c1=O [Example 10, 5-Cyano-N-{(2R)-3-[4-(3,4-dichlorophenoxy)piperidin-1-yl]-2-hydroxypropyl}-6-oxo-2-(trifluoromethyl)-1,6-dihydropyridine-3-carboxamide] | 126 nM | – | –
Cc1c(OC2CCN(C[C@H](O)CNC(=O)c3ccc(Cl)c(C(=O)O)c3)CC2)ccc(Cl)c1Cl [Example 42, 2-Chloro-5-[({(2R)-3-[4-(3,4-dichloro-2-methylphenoxy)piperidin-1-yl]-2-hydroxypropyl}amino)carbonyl]benzoic acid] | 126 nM | – | 2.3
CN(c1[nH]nnc1C(=O)NC[C@@H](O)CN1CCC(Oc2ccc(Cl)c(Cl)c2)CC1)S(C)(=O)=O [Example 39, N-{(2R)-3-[4-(3,4-Dichlorophenoxy)piperidin-1-yl]-2-hydroxypropyl}-5-[methyl(methylsulfonyl)amino]-1H-1,2,3-triazole-4-carboxamide] | 126 nM | – | –
N#Cc1ccc(OC2CCN(C[C@H](O)CNC(=O)c3sc(=O)[nH]c3C(F)(F)F)CC2)cc1Cl [Example 27, N-{(2R)-3-[4-(3-Chloro-4-cyanophenoxy)piperidin-1-yl]-2-hydroxypropyl}-2-oxo-4-(trifluoromethyl)-2,3-dihydro-1,3-thiazole-5-carboxamide] | 251 nM | – | –
CC(C)c1[nH]nnc1C(=O)NC[C@@H](O)CN1CCC(Oc2ccc(C#N)c(Cl)c2)CC1 [Example 31, N-{(2R)-3-[4-(3-Chloro-4-cyanophenoxy)piperidin-1-yl]-2-hydroxypropyl}-5-isopropyl-1H-1,2,3-triazole-4-carboxamide] | 158 nM | – | –
CS(=O)(=O)Nc1cc(C(F)(F)F)c(C(=O)NC[C@@H](O)CN2CCC(Oc3ccc(Cl)c(Cl)c3)CC2)cn1 [Example 18, N-{(2R)-3-[4-(3,4-Dichlorophenoxy)piperidin-1-yl]-2-hydroxypropyl}-6-[(methylsulfonyl)amino]-4-(trifluoromethyl)nicotinamide] | 316 nM | 5.3 | –
CN(C[C@@H](O)CN1CCC(Oc2ccc(Cl)c(Cl)c2)CC1)C(=O)c1sc(=O)[nH]c1C(F)(F)F [Example 5, N-{(2S)-3-[4-(3,4-Dichlorophenoxy)piperidin-1-yl]-2-hydroxypropyl}-N-methyl-2-oxo-4-(trifluoromethyl)-2,3-dihydro-1,3-thiazole-5-carboxamide] | 126 nM | – | –
O=C(NC[C@@H](O)CN1CCC(Oc2ccc(Cl)c(Cl)c2)CC1)c1oc(=O)[nH]c1C(F)(F)F [Example 37, N-{(2R)-3-[4-(3,4-Dichlorophenoxy)piperidin-1-yl]-2-hydroxypropyl}-2-oxo-4-(trifluoromethyl)-2,3-dihydro-1,3-oxazole-5-carboxamide] | 200 nM | – | –
